Results reported in paper PMC9602571, “Discovery of a Dual SENP1 and SENP2 Inhibitor” (International Journal of Molecular Sciences, 2022).
pIC50: −log10 of the molar value.

How the values were obtained:
SENP2 = target: T1, SENP2 (Homo sapiens, UniProt Q9HC62); assay: Fluorogenic SENP2 assay, SUMO1-AMC substrate; type: biochemical; conditions: n = 2
T1 construct: Human recombinant catalytic domain expressed in E. coli; purchased Enzo BML-UW9765; host or cells: E. coli
T1 sequence (Q9HC62 396-560 limits assumed): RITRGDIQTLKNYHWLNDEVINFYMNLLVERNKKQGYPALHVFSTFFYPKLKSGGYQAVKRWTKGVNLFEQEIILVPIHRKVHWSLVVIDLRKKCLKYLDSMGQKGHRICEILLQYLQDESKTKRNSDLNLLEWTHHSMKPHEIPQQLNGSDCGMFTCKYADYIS
Description: The IC50 measurements were conducted at Reaction Biology Corporation, Malvern, PA, USA, with two replications using 10 concentrations starting at 200 μM with a three-fold dilution. Curve fits were performed where the enzyme activities at the highest concentration of compounds were less than 65%. UCH-L3 I was used as a control inhibitor. To SENP2 (Enzo Cat# BML-UW9765, Human recombinant catalytic domain expressed in E. coli.) in reaction buffer (50 mM HEPES, 150 mM NaCl, 0.5 mM EDTA, 1 mM DTT, pH 7.5, 0.01% CHAPS) was delivered the compound stock solution by acoustic technology (Echo550; nanoliter range) and subsequently incubated for 15 min at ambient temperature. The substrate SUMO1-AMC (R&D Systems Cat# UL-551-050, Lot# 07613314A, Fluorescence labeled full-length SUMO1 protein) was delivered to the well-plate to initiate the reaction. The enzyme activities were monitored (Ex/Em = 355/460 nm) as a time-course measurement of the increase in fluorescence signal from SUMO1-AMC for 90 min at ambient temperature. The data were analyzed by taking the slope (signal/time) of linear portion of measurement. The slope was calculated using Excel and the curve fits were performed using GraphPad Prism7 with a four-parameter least-squares fit. The final reaction conditions contained 0.015 nM SENP2 and 300 nM SUMO1/2 or 3-AMC.

Ataxin-3 = target: T2, Ataxin-3 (Homo sapiens, UniProt P54252); assay: Ataxin-3 activity assay, Ubiquitin-AMC substrate; type: biochemical; conditions: n = 2
T2 construct: purchased BPS 80399
T2 sequence (P54252 whole entry): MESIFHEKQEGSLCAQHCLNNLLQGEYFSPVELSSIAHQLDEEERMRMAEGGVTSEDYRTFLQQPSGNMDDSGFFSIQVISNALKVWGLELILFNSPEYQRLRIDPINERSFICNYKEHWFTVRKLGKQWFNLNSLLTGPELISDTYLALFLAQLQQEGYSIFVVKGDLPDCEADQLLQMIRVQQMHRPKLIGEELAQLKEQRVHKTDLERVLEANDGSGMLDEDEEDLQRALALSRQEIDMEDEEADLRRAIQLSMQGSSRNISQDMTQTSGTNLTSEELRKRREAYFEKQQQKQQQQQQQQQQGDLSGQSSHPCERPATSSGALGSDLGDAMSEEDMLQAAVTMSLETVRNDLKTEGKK
Description: IC50 measurements were conducted at Reaction Biology Corporation, Malvern, PA, USA, with two replications using 10 concentrations starting at 200 μM with three-fold dilution. Curve fits were performed where the enzyme activities at the highest concentration of compounds were less than 65%. UCHL1 II was used as a control inhibitor. The procedure was performed analogous to the fluorogenic SENP2 assay described in 3.3.2. using the Ataxin-3 enzyme (BPS Cat# 80399) and Ubiquitin-AMC substrate (Enzo Cat# BML-SE211-0025). The final reaction conditions contained 500 nM Ataxin-3 and 100 nM Ubiquitin-AMC.

SENP1 [1] = target: T3, SENP1 (Homo sapiens, UniProt Q9P0U3); assay: SENP1 endopeptidase activity with proSUMO3 (SDS gel); type: biochemical; conditions: inhibitor 200 µM, proSUMO3 5 µM, 37 °C, 1 h
T3 construct: Human recombinant, His6-SENP1 Catalytic Domain; His6 (N); purchased Boston Biochem (Bio-Techne AG) E-700
T3 sequence (Q9P0U3 450-613 limits assumed): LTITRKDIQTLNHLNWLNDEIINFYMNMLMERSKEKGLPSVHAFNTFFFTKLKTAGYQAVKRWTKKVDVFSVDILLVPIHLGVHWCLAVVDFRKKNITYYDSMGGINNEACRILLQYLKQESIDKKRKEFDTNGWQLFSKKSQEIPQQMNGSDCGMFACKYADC
Description: Measurements were performed using six different inhibitor concentrations starting at 200 μM of 11 with three-fold dilution. Human recombinant, His6-SENP1 Catalytic Domain (Boston Biochem Cat# E-700, Bio-Techne AG, Zug, Switzerland) was prepared in reaction buffer (50 mM HEPES, 150 mM NaCl 0.5 mM EDTA, 1 mM DTT, pH 7.5, 0.01% CHAPS) as 555 nM solution. A 20 mM compound DMSO stock-solution (1.1 µL) was added to the freshly prepared 555 nM enzyme solution (98.9 µL). […] Then, 50 µM proSUMO3 (5 µL) was added to the freshly prepared enzyme inhibitor solution (45 µL) and incubated for 60 min at 37 °C and subsequently the reaction was stopped by adding 4 × Laemmli-Buffer (16.7 µL) and denaturing the protein at 100 °C for 30 min. Those solutions (10 µL) were loaded on a casted 15% sodium dodecyl sulfate polyacrylamide gel and separated on a Mini-PROTEAN Tetra Cell (Bio-Rad, Hercules, CA, USA). After SDS-PAGE gel electrophoresis separation, the gels were stained with staining solution Bio-Safe Coomassie Brilliant Blue G-250 (BioRad) for 60 min. De-staining was performed with 40% (v/v) methanol, 10% (v/v) glacial acetic acid, 50% (v/v) Milli-Q water until protein bands became visible.

SENP1 [2] = target: T3, SENP1; assay: Photo crosslinking experiments with SENP1; type: binding; conditions: competitor 400 µM, probe 56 200 µM
Description: A buffer exchange of the commercially available 6 × His-SENP1 Protein (Boston Biochem Cat# E-700) to a 50 mM HEPES, 150 mM NaCl; 0.5 mM EDTA, 1 mM DTT, pH 7.5 was performed. A total of 200 μM of the photo affinity probe 56 with or without competitor molecule 11 (400 μM) was incubated in 10 uM SENP1 for 30 min at 0 °C. Subsequently, the mixtures were irradiated in a Proma UV exposure unit equipped with four 8 Watt lamps (Hitachi FL8BL-8, ~350 nm) for 30 min at 0 °C. Then, 50 µL of the crosslinked proteins were mixed with freshly prepared click mix solution (50 μL; 1 mM CuSO4, 1 mM TCEP, 100 uM THPTA from a 5 mM DMSO stock, dissolved in Milli-Q Water) and a 10 mM stock solution of azide fluor 545 (1 μL) and incubated at 0 °C for 14 h. […] Protein samples for SDS-PAGE were first prepared in 1 × Laemmli sample buffer (diluted from 4 × Laemmli sample buffer (ROTI®Load), and subsequently denatured at 100 °C for 15 min. After SDS-PAGE gel electrophoresis separation, the fluorescence was visualized (Ex. 520 nm, Em. 575 nm) on the SDS PAGE gel using ImageQuant^TM 4000 LAS (GE Healthcare, Chicago, IL, USA). Secondly, the gels were stained with Bio-Safe Coomassie Brilliant Blue G-250 (BioRad) for 60 min. De-staining was performed with 40% (v/v) methanol, 10% (v/v) glacial acetic acid, 50% (v/v) Milli-Q water until protein bands became visible.

pIC50 (SENP2): 5.64
inhibition of SENP1 endopeptidase activity (proSUMO3 maturation) (SENP1 [1]): full inhibition
fluorescently labelled band of SENP1 in competition with photo probe 56 (SENP1 [2]): significantly decreased
melting point: 237 °C (dec.)
SMILES: O=C(Cn1nnc(-c2ccccc2)n1)N1c2ccccc2NC(=O)C12CCCC2 [Compound 11, 1′-[2-(5-Phenyl-2H-1,2,3,4-tetrazol-2-yl)acetyl]-3′,4′-dihydro-1′H-spiro[cyclopentane-1,2′-quinoxalin]-3′-one]
pIC50 (Ataxin-3): 4.17
